Assay results taken from patent US20030186950A1, “Use of n-heterocyclic substituted salicylates for inhibition of cellular uptake of cystine” (priority 2000, published 2003).
Entries after “also recorded” stand apart in the source; their conditions may differ.

Experiments:
[1] = test system: Nb2-SFJCD1 rat lymphoma cells; assay: Culture growth inhibition assay in Nb2-SFJCD1 lymphoma cultures; assay type: cell-based; conditions: for Growth-inhibitory activity: 0.1-0.3 mM (FIG. 2); for IC50: 45 h, Fischer's medium with 10.0% horse gelding serum, read-out: IC50 (mM) Average ± S.D., growth inhibition
Description: (§1) Nb2 lymphoma is of a pre-T cell origin. The parental line (Nb2 U17) is non-metastatic as subcutaneous implants whereas subline Nb2-SFJCD1 is highly metastatic. Nb2-SFJCD1 cultures (doubling time=12-13 hr) were maintained in Fischer's medium (Sigma-Aldrich), supplemented with 10.0% horse gelding serum (lactogen-deficient; one batch, ICN Biomedicals, Inc., Auroro, Ohio), penicillin (50 U/ml) and streptomycin (50 μg/ml). In this medium the cells grow as clumps which can be readily dispersed. Nb2 lymphoma cell lines are used by a number of laboratories; the Nb2-11 subline, is available from the European Collection of Animal Cell Cultures (ECACC) in Salisbury, U.K. The Nb2-U17 and Nb2-SJFCD1 cell lines are available from Dr. Peter W. Gout, B.C. Cancer Research Centre, Vancouver, B.C., Canada.
Nb2-SFJCD1 cells from log phase cultures were centrifuged (3.5 min at 350×g) and gently resuspended in fresh Fisher's medium containing 10% horse gelding serum. Aliquots (1.80 ml) were distributed in 12-well tissue culture plates (Linbro, Flow Laboratories, Mississauga, ON, Canada) and preincubated for 3-5 hours at 37° C. in a water-saturated 5% CO2/air atmosphere. Solutions of the drugs (200 μl portions) were then added to the cultures for a 45 hour incubation (Cin=1.0×10^5 cells/ml). Cell populations were determined using an electronic counter (Coulter Electronics, Hialeah, Fla.).

[2] = as reported in the literature for patients/controls undergoing treatment; cited from earlier work
[3] = test system: MCF-7 human breast carcinoma cell line; assay: Cell proliferation of MCF-7 breast carcinoma cells; assay type: cell-based
Source text: (§2) The effect of sulfasalazine on cell proliferation was subsequently assessed.

Nb2-U17 tumor transplant = assay: Tumor growth inhibition in Nb rats with subcutaneous Nb2-U17 lymphoma transplants; assay type: in vivo, rat; conditions: b.i.d.; for Average tumor size after 7 days: controls 12.6 gr
Description: A colony of Nb rats is maintained in the British Columbia Cancer Research Centre Vancouver, B.C., Canada. Approximately equal portions of minced Nb2-U17 tumor tissue, developed subcutaneously in a rat following injection of cultured Nb2-U17 cells, were injected by trocar subcutaneously in the nape of the neck of groups of male Nb rats (one injection per rat), that had been lightly anesthetized with isoflurane (Abbott Laboratories Ltd., Montreal, Canada). […] 2% CMC or saline were used for controls. Drug preparation and administration were carried out under subdued light conditions. Food and water were provided ad libitum. Tumor size, body weight and general health of the rats were monitored twice a day. Tumor size was measured using calipers and expressed in grams using the formula: π/6×length×width×height in cm. […] On necropsy the animals were examined for evidence of metastatic spread with particular attention to tissues such as kidneys, liver and spleen, the target tissues of metastatic Nb2 lymphoma cells. Tissue sections were taken for histologic analysis. Non-tumor-bearing animals were used to establish maximally tolerated dosages.
Groups of male rats (350-400 gr) were used, each carrying a single, well-developed, rapidly growing, non-metastatic, subcutaneous Nb2-U17 tumor transplant in the nape of the neck. Non-metastatic Nb2-U17 tumors were employed to avoid dissemination of cells from the tumor which would interfere with measurements of drug-induced changes in tumor mass. […] The animals were treated for a 7-day period, with drug administration taking place at approximately 12 hour intervals in an attempt to maintain elevated levels of the drug in the circulation.

[4] = test system: DoHH2 cells (human B-cell non-Hodgkin's lymphoma); assay: Culture growth inhibition assay in DoHH2 cultures; assay type: cell-based; conditions: for Growth-inhibitory activity: medium with 5% FBS + 5% horse serum (FIG. 4)
Description: as §1, with “Canada. DoHH2 cell suspension cultures (doubling time ca. 20 hours) were maintained in RPMI-1640 medium (Stem Cell Technology, Vancouver, B.C., Canada) containig fetal bovine serum (5%), horse serum (5%) and antibiotics.” for “Canada.”
Assays using DoHH2 cells were similarly performed, using their maintenance medium; Cin=ca. 1.5×10^5 cells/ml (see: Kluin-Nelemans, H. C. et al. (1991) Leukemia 5:221.)

[5] = test system: MDA-MB-231 human breast carcinoma cell line; assay: Cell proliferation of MDA-MB-231 breast carcinoma cells; assay type: cell-based; conditions: 2-ME 60 μM
Source text: as §2

[6] = rat, in vivo, ip
Source text: 2% CMC or saline were used for controls. […] Food and water were provided ad libitum. […] Tissue sections were taken for histologic analysis.
Reduced tumor growth in the animals was therefore not the result of drug-induced dissemination of tumor cells from the transplant site, but reflected genuine, tumor growth inhibition. […] During therapy the animals remained active and their eyes stayed bright; there was no evidence of diarrhea, or changes in the appearance of their fur.

With `Nc1ccc(O)c(C(=O)O)c1` [5-aminosalicylic acid] the Growth-inhibitory activity ([1]; listed as 5-ASA) was “devoid of growth-inhibitory activity”.
For `CC(=O)Oc1ccccc1C(=O)O` [Acetylsalicylic acid], the inhibition at 3000 µM ([1]; Rattus norvegicus, 3 mM (FIG. 1), read-out: Inhibition of culture growth at therapeutic concentration) is given as ~50%, the IC50 ([1]; Rattus norvegicus) is given as 3.09 ± 0.28 mM and the “Therapeutic drug levels in plasma” value [2] is given as 1 to 3 mM.
In the case of `COc1ccc2c(c1)c(CC(=O)O)c(C)n2C(=O)c1ccc(Cl)cc1` [Indomethacin], the inhibition at 20 µM ([1]; Rattus norvegicus, 0.02 mM (FIG. 1), read-out: Inhibition of culture growth at therapeutic concentration) is given as 5 to 10%, the IC50 ([1]; Rattus norvegicus) is given as 0.15 ± 0.01 mM and the “Therapeutic drug levels in plasma” value [2] is given as 0.005 to 0.02 mM.
In the case of `N[C@@H](CCC(=O)O)C(=O)[O-].[Na+]` [Monosodium glutamate], the Inhibition of proliferation ([3]; 10 mM) is reported as “inhibited proliferation in MCF-7 cells to an extent similar to that observed for sulfasalazine” and the “Effect of 2-ME addition on inhibition of proliferation” value ([3]; 10 mM, 2-ME added) is reported as “completely negated this effect”.
In the case of `O=C([O-])c1ccccc1O.[Na+]` [Salicylate, sodium, sodium salicylate], the “Inhibition of tumor growth” value (Nb2-U17 tumor transplant; i.p. 150 mg/kg body wt, 7 days, 150 mg/kg) is reported as “did not inhibit tumor growth; also recorded: had no effect”.
With `O=C(O)c1cc(/N=N/c2ccc(S(=O)(=O)Nc3ccccn3)cc2)ccc1O` [Sulfasalazine] the “Effect on culture growth” value ([1]; 0.15 mM, 45 hour experiment) was “only partially arrested growth”, the Cell lysis ([1]; 0.2 mM, period 24-45 hours) was “induced severe cell lysis” and the Growth-inhibitory activity [1] was “highly potent”. The “Change of growth-inhibitory effect by elevated cystine” value ([1]; cystine at ca. 3-fold elevated levels (FIG. 5)) was “substantially reduced”, the Cell lysis ([4]; 1.5% FBS, 0.05 mM, at hr 45 (FIG. 4)) was “extensive cell lysis” and the Growth-inhibitory activity [4] was “sensitivity to the drug which was similar to that of rat Nb2 lymphoma cells”. The Growth-inhibitory activity ([4]; listed as sulfasalazine) was “markedly inhibited the growth”, the “Average tumor size after 7 days” value (Nb2-U17 tumor transplant; i.p. 200 mg/kg body wt, start 0.93 gr) was 3.43 gr and the “Average tumor size after 7 days” value (Nb2-U17 tumor transplant; i.p. 250 mg/kg body wt, start 0.60 gr) was 2.65 gr. The “Tumor growth suppression in three of the 13 cases” value (Nb2-U17 tumor transplant; i.p. 200 or 250 mg/kg body wt, 7 days) was 90-100%, the Lymphoma growth-inhibitory effect (Nb2-U17 tumor transplant; oral 500 mg/kg body wt, 7 days) was “only minor lymphoma growth-inhibitory effect” and the IC50 ([3]; Homo sapiens, MCF7, MCF-7, read-out: IC50, growth inhibition) was 500 ± 100 µM. The “Antagonism of inhibitory action by 2-ME” value [5] was “completely antagonized”, the Maximally tolerated dose ([6]; Nb, 7 days) was 250 mg/kg body wt, b.i.d and the Side effects [6] was “no major side effects”.
With `Nc1ccc(S(=O)(=O)Nc2ccccn2)cc1` [sulfapyridine] the Growth-inhibitory activity [1] was “devoid of growth-inhibitory activity”.
